In brackets after ≈: the same amount, converted by molar mass. Where two headings read alike, the source gives them in different places.
What was measured:
P. aeruginosa ATCC 9027 = test: Antibacterial activity, pre-exposure; assay type: cell-based, Pseudomonas aeruginosa; conditions: for Average inhibition %, biofilms viability / Average inhibition %, planktonic cells viability / inhibition at 50 µM / inhibition at 100 µM / inhibition at 150 µM / inhibition at 200 µM: P. aeruginosa ATCC 9027, pre-exposure, ± SD; for inhibition at 50 µM / inhibition at 100 µM / inhibition at 150 µM / inhibition at 200 µM: Pseudomonas aeruginosa, ATCC9027
Procedure, shortened: (§1)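 Bacteria and compound were co-incubated from the start for 18 h at 37 °C, 220 rpm. Planktonic cells scored by turbidity plus resazurin reduction; washed biofilms scored by 20 μM resazurin (30, 60, 90 min for S. aureus, A. baumannii, P. aeruginosa) and ethanol-fixed crystal violet staining.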

S. aureus ATCC 25923 [1] = test: Antibacterial activity, post-exposure on preformed 18-h-old biofilms; assay type: cell-based, Staphylococcus aureus; conditions: ± SD; for inhibition at 25 µM / inhibition at 50 µM / inhibition at 100 µM / inhibition at 200 µM: Staphylococcus aureus; for inhibition at 25 µM: ATCC25923, 25 µM; for inhibition at 50 µM: ATCC25923, 50 µM; for inhibition at 100 µM: ATCC25923, 100 µM; for inhibition at 200 µM: ATCC25923, 200 µM
Procedure, shortened: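 Compounds were applied to preformed 18-h biofilms after medium change and left 24 h. Read-outs: planktonic OD plus resazurin fluorescence (20 μM), biofilm metabolic activity by resazurin 30 min at 37 °C, then biomass by crystal violet absorbance at 595 nm after ethanol fixation.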

A. baumannii NCTC 13423 = test: Antibacterial activity, pre-exposure; assay type: cell-based, Acinetobacter baumannii; conditions: for Average inhibition %, biofilms viability / Average inhibition %, planktonic cells viability / inhibition at 10 µM / inhibition at 15 µM / inhibition at 25 µM / inhibition at 50 µM: A. baumannii NCTC 13423, pre-exposure, ± SD; for inhibition at 10 µM / inhibition at 15 µM / inhibition at 25 µM / inhibition at 50 µM: Acinetobacter baumannii, NCTC13423
Procedure, shortened: as §1

S. aureus ATCC 25923 [2] = test: Antibacterial activity, pre-exposure (planktonic cells and biofilm formation); assay type: cell-based, Staphylococcus aureus; conditions: for MIC / inhibition at 5 µM / inhibition at 10 µM / inhibition at 15 µM / inhibition at 25 µM: Staphylococcus aureus, ATCC25923; for inhibition at 5 µM / inhibition at 10 µM / inhibition at 15 µM / inhibition at 25 µM / Average inhibition %, biofilms viability / Average inhibition %, planktonic cells viability: pre-exposure, ± SD
Procedure, shortened: as §1

[3] = 50 µM, read-out: Average inhibition %, biofilms biomass
[4] = 50 µM, read-out: Average inhibition %, planktonic cells turbidity
[5] = read-out: Average inhibition %, biofilms biomass
[6] = read-out: Average inhibition %, planktonic cells turbidity
[7] = 10 µM, read-out: Average inhibition %, biofilms biomass
[8] = 10 µM, read-out: Average inhibition %, planktonic cells turbidity
[9] = 15 µM, read-out: Average inhibition %, biofilms biomass
[10] = 15 µM, read-out: Average inhibition %, planktonic cells turbidity
[11] = 25 µM, read-out: Average inhibition %, biofilms biomass
[12] = 25 µM, read-out: Average inhibition %, planktonic cells turbidity

CCCCCCCCCCc1ccc2nc(CCC(N)(CO)CO)ccc2c1 [Compound 81, 2-Amino-2-[2-(6-decylquinolin-2-yl)ethyl]propane-1,3-diol]
Average inhibition %, biofilms viability (P. aeruginosa ATCC 9027; 50 µM): 4.9 ± 5.2% | Average inhibition %, planktonic cells viability (P. aeruginosa ATCC 9027; 50 µM): 10.9 ± 9.5% | Average inhibition %, biofilms viability (P. aeruginosa ATCC 9027; 100 µM): 3.8 ± 4.9% | Average inhibition %, planktonic cells viability (P. aeruginosa ATCC 9027; 100 µM): 20.3 ± 12.9% | Average inhibition %, biofilms viability (P. aeruginosa ATCC 9027; 150 µM): 7.9 ± 11.7% | Average inhibition %, planktonic cells viability (P. aeruginosa ATCC 9027; 150 µM): 16.3 ± 5.7% | Average inhibition %, biofilms viability (P. aeruginosa ATCC 9027; 200 µM): 0.3 ± 0.5% | Average inhibition %, planktonic cells viability (P. aeruginosa ATCC 9027; 200 µM): 17 ± 16.2% | inhibition at 50 µM (P. aeruginosa ATCC 9027; [3]): 3.6 ± 4.6% | inhibition at 50 µM (P. aeruginosa ATCC 9027; [4]): 29.2 ± 5.8% | inhibition at 100 µM (P. aeruginosa ATCC 9027; 100 µM, read-out: Average inhibition %, biofilms biomass): 0% | inhibition at 100 µM (P. aeruginosa ATCC 9027; 100 µM, read-out: Average inhibition %, planktonic cells turbidity): 41.2 ± 11.2% | inhibition at 150 µM (P. aeruginosa ATCC 9027; 150 µM, read-out: Average inhibition %, biofilms biomass): 4 ± 7% | inhibition at 150 µM (P. aeruginosa ATCC 9027; 150 µM, read-out: Average inhibition %, planktonic cells turbidity): 38.2 ± 12.2% | inhibition at 200 µM (P. aeruginosa ATCC 9027; 200 µM, read-out: Average inhibition %, biofilms biomass): 0.7 ± 0.6% | inhibition at 200 µM (P. aeruginosa ATCC 9027; 200 µM, read-out: Average inhibition %, planktonic cells turbidity): 30.5 ± 8.3% | MIC P. aeruginosa ATCC 9027 (P. aeruginosa ATCC 9027; pre-exposure, Inactive = no activity up to 200 μM, > = some inhibition but no MIC reached): Inactive | Average inhibition %, biofilms viability (S. aureus ATCC 25923 [1]; 25 µM): 6.4 ± 8.2% | Average inhibition %, planktonic cells viability (S. aureus ATCC 25923 [1]; 25 µM): 8.8 ± 7.7% | Average inhibition %, biofilms viability (S. aureus ATCC 25923 [1]; 50 µM): 18.3 ± 16.6% | Average inhibition %, planktonic cells viability (S. aureus ATCC 25923 [1]; 50 µM): 6.9 ± 10.4% | Average inhibition %, biofilms viability (S. aureus ATCC 25923 [1]; 100 µM): 20.9 ± 18.1% | Average inhibition %, planktonic cells viability (S. aureus ATCC 25923 [1]; 100 µM): 28.8 ± 17.2% | Average inhibition %, biofilms viability (S. aureus ATCC 25923 [1]; 200 µM): 20.1 ± 16% | Average inhibition %, planktonic cells viability (S. aureus ATCC 25923 [1]; 200 µM): 7.8 ± 11.1% | inhibition at 25 µM (S. aureus ATCC 25923 [1]; [5]): 9.7 ± 8.6% | inhibition at 25 µM (S. aureus ATCC 25923 [1]; [6]): 22.7 ± 32.9% | inhibition at 50 µM (S. aureus ATCC 25923 [1]; [5]): 28.5 ± 12.5% | inhibition at 50 µM (S. aureus ATCC 25923 [1]; [6]): 10 ± 17.4% | inhibition at 100 µM (S. aureus ATCC 25923 [1]; [5]): 34.6 ± 8.2% | inhibition at 100 µM (S. aureus ATCC 25923 [1]; [6]): 19 ± 22.4% | inhibition at 200 µM (S. aureus ATCC 25923 [1]; [5]): 25 ± 11.6% | inhibition at 200 µM (S. aureus ATCC 25923 [1]; [6]): 11.2 ± 16.9% | Average inhibition %, biofilms viability (A. baumannii NCTC 13423; 10 µM): 0 ± 0% | Average inhibition %, planktonic cells viability (A. baumannii NCTC 13423; 10 µM): 7.5 ± 7.6% | Average inhibition %, biofilms viability (A. baumannii NCTC 13423; 15 µM): 0 ± 0% | Average inhibition %, planktonic cells viability (A. baumannii NCTC 13423; 15 µM): 5.8 ± 6.2% | Average inhibition %, biofilms viability (A. baumannii NCTC 13423; 25 µM): 0 ± 0% | Average inhibition %, planktonic cells viability (A. baumannii NCTC 13423; 25 µM): 2.6 ± 2.1% | Average inhibition %, biofilms viability (A. baumannii NCTC 13423; 50 µM): 0.8 ± 1.4% | Average inhibition %, planktonic cells viability (A. baumannii NCTC 13423; 50 µM): 2.6 ± 3.8% | inhibition at 10 µM (A. baumannii NCTC 13423; [7]): 0% | inhibition at 10 µM (A. baumannii NCTC 13423; [8]): 0.2 ± 0.5% | inhibition at 15 µM (A. baumannii NCTC 13423; [9]): 2.1 ± 3.6% | inhibition at 15 µM (A. baumannii NCTC 13423; [10]): 0% | inhibition at 25 µM (A. baumannii NCTC 13423; [11]): 3.6 ± 6.2% | inhibition at 25 µM (A. baumannii NCTC 13423; [12]): 0% | inhibition at 50 µM (A. baumannii NCTC 13423; [3]): 5.6 ± 5.9% | inhibition at 50 µM (A. baumannii NCTC 13423; [4]): 0.5 ± 0.9% | MIC A. baumannii NCTC 13423 (A. baumannii NCTC 13423; pre-exposure, Inactive = no activity up to 50 μM, > = some inhibition but no MIC reached): Inactive | MIC (S. aureus ATCC 25923 [2]; lowest concentration with no visible growth (>90% inhibition of turbidity and viability of planktonic cells), 18 h, read-out: MIC S. aureus ATCC 25923): 10 to 15 µM (≈ 3.87 to 5.8 µg/mL) | inhibition at 5 µM (S. aureus ATCC 25923 [2]; 5 µM, read-out: Average inhibition %, biofilms biomass): 28.1 ± 33.9% | inhibition at 5 µM (S. aureus ATCC 25923 [2]; 5 µM, read-out: Average inhibition %, planktonic cells turbidity): 33.4 ± 30.9% | inhibition at 10 µM (S. aureus ATCC 25923 [2]; [7]): 66 ± 27.6% | inhibition at 10 µM (S. aureus ATCC 25923 [2]; [8]): 57.3 ± 36.4% | inhibition at 15 µM (S. aureus ATCC 25923 [2]; [9]): 98.4 ± 0.3% | inhibition at 15 µM (S. aureus ATCC 25923 [2]; [10]): 99.3 ± 0.2% | inhibition at 25 µM (S. aureus ATCC 25923 [2]; [11]): 97.3 ± 0.1% | inhibition at 25 µM (S. aureus ATCC 25923 [2]; [12]): 98.6 ± 0.3% | MIC (S. aureus ATCC 25923 [2]; read-out: MIC (S. aureus)): 10 to 15 µM (≈ 3.87 to 5.8 µg/mL) | Average inhibition %, biofilms viability (S. aureus ATCC 25923 [2]; 5 µM): 28.3 ± 16.5% | Average inhibition %, planktonic cells viability (S. aureus ATCC 25923 [2]; 5 µM): 23.5 ± 26.1% | Average inhibition %, biofilms viability (S. aureus ATCC 25923 [2]; 10 µM): 64 ± 29.7% | Average inhibition %, planktonic cells viability (S. aureus ATCC 25923 [2]; 10 µM): 33.9 ± 57% | Average inhibition %, biofilms viability (S. aureus ATCC 25923 [2]; 15 µM): 99.1 ± 1% | Average inhibition %, planktonic cells viability (S. aureus ATCC 25923 [2]; 15 µM): 99.7 ± 0% | Average inhibition %, biofilms viability (S. aureus ATCC 25923 [2]; 25 µM): 99.1 ± 1.4% | Average inhibition %, planktonic cells viability (S. aureus ATCC 25923 [2]; 25 µM): 99.7 ± 0.1%
